In ChEMBL document CHEMBL1148215, “Lipoxygenase inhibitory constituents from Periploca aphylla” (J Nat Prod, 2004):
pIC50: −log10 of the molar value.

Assay: Inhibition of Lipoxygenase 1B

First: CC(C)(O)/C=C/C1=CC(=O)[C@H](O)C[C@]1(C)O
Second: O=c1cc(-c2ccccc2)oc2cc(O)c(O)c(O)c12 [BAICALEIN]
The pIC50 of the first is 0.83 log units lower: 3.82 for the first, 4.65 for the second. The second is the more potent here.

`Oc1cc(O)c2c(c1)O[C@H](c1ccc(O)c(Oc3cc([C@H]4Oc5cc(O)cc(O)c5C[C@@H]4O)ccc3O)c1)[C@@H](O)C2` and `Oc1cc(O)c2c(c1)O[C@H](c1ccc(O)c(Oc3cc(O)c4c(c3)O[C@H](c3ccc(O)c(O)c3)[C@H](O)C4)c1)[C@H](O)C2` are within 0.2 log units of each other in pIC50: 4.71 for the first, 4.87 for the second.
